Experimental findings from ChEMBL document CHEMBL1909046, “DrugMatrix in vitro pharmacology data” are described below.

In assay [1] the target is T1, Alpha-1D adrenergic receptor (Homo sapiens, UniProt P25100). Also: in other assays of this panel Not Active means under 50% inhibition at 10 µM.
T1 sequence (P25100 whole entry): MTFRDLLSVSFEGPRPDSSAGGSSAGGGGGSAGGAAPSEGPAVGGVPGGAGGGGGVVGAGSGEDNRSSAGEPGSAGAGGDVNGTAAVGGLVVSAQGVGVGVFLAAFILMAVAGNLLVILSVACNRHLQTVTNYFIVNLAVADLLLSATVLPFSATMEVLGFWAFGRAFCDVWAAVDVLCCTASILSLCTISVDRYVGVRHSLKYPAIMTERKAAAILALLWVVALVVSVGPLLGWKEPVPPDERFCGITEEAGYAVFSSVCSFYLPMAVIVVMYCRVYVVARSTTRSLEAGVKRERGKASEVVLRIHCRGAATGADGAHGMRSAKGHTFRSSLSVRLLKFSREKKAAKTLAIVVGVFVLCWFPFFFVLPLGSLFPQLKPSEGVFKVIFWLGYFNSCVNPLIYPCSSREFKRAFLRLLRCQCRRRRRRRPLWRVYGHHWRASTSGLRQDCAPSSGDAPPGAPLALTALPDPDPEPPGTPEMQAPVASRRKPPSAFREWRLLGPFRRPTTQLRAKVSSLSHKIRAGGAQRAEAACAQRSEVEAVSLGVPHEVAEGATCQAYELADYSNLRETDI
The class given is cell membranes, HEK293, Membrane.

The target of assay [2] is Tyrosine-protein kinase Fyn (Homo sapiens, UniProt P06241). The experiment in a line: biochemical. The class given is cell-based, Insect cells. The conditions noted are these: insect cells.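 Also: enzymatic inhibition of Fyn kinase activity measured with Poly(Glu:Tyr) as the phosphorylation substrate; in other assays of this panel Not Active means under 50% inhibition at 10 µM.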
A further assay deals with T2, Substance-K receptor (Homo sapiens, UniProt P21452).
T2 sequence (P21452 whole entry): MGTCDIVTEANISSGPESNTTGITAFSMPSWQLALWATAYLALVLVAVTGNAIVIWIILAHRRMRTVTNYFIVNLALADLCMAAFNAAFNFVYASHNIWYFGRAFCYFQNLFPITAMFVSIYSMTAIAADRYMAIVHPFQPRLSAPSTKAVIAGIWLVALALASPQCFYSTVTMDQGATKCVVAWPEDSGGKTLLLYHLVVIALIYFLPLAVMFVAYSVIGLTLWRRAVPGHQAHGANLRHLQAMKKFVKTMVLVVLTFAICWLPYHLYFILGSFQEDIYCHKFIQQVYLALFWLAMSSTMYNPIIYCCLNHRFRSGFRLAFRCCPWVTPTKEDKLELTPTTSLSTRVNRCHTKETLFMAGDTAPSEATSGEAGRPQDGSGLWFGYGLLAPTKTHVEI
The class given is cell membranes, CHO, Membrane.

Assay [3] is described as follows: DRUGMATRIX: Sodium/nucleoside co-transporter radioligand binding (ligand: nitrobenzylthioinosine). The note with it: Not Active = under 50% inhibition at 10 µM. The class given is cell membranes, Cavia porcellus, Dunkin-Hartley, Cerebral cortex, Membrane.
Assay [4] addresses Mitogen-activated protein kinase 14 (Homo sapiens, UniProt Q16539). More on the design: species or system Escherichia coli.
Assay [5] in a line: DRUGMATRIX: Atrial Natriuretic Factor (ANF) radioligand binding (ligand: [125I] ANF (rat)). The conditions noted are these: Not Active = under 50% inhibition at 10 µM. The class given is cell membranes, Cavia porcellus, Dunkin-Hartley, Adrenal gland, Membrane.

Sequence of Tyrosine-protein kinase Fyn (P06241 whole entry): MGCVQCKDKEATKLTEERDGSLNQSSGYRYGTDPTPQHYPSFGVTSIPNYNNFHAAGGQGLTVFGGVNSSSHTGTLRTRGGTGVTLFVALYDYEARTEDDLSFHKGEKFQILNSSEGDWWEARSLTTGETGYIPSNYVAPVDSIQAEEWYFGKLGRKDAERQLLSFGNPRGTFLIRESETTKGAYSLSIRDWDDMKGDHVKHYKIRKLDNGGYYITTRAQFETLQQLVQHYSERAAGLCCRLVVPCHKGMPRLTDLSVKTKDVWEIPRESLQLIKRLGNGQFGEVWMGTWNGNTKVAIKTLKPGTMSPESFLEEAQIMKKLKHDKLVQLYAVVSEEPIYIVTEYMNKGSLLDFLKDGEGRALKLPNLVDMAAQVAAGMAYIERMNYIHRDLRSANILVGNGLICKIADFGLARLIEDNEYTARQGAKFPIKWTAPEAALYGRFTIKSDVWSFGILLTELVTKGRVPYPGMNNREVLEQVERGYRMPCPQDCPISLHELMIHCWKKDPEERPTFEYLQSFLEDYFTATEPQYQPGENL
Sequence of Mitogen-activated protein kinase 14 (Q16539 whole entry): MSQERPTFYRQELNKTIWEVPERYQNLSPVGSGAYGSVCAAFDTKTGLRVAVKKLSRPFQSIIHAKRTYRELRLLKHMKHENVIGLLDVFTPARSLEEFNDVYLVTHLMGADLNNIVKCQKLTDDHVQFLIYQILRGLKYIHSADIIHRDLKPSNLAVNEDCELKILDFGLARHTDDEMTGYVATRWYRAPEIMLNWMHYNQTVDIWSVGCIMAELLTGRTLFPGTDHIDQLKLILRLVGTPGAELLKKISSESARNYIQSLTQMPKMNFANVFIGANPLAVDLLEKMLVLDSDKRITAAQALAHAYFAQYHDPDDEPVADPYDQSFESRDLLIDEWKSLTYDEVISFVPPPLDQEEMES

Turning to `Cc1cn[nH]c1` [FOMEPIZOLE], the IC50 result (in assay [1] (hek293); in assay [2]; on Substance-K receptor (cho); in assay [3]; in assay [4]; in assay [5]) was “Not Active” throughout. For the same compound, the inhibitory constant (Ki) result in assay [3] and in assay [5] was “Not Active” in each case.
For the compound `NC[C@@H]1O[C@H](O[C@H]2[C@@H](O)[C@H](O[C@@H]3[C@@H](O)[C@H](N)C[C@H](N)[C@H]3O[C@H]3O[C@H](CN)[C@@H](O)[C@H](O)[C@H]3N)O[C@@H]2CO)[C@H](N)[C@@H](O)[C@@H]1O` [FRAMYCETIN], the IC50 entry (in assay [1] (hek293); in assay [2]; against Substance-K receptor (cho); in assay [3]; in assay [4]; in assay [5]) was “Not Active” each time. For the same compound, the Ki result in assay [3] and in assay [5] was “Not Active” throughout.
In the case of `C[C@H]([C@](O)(Cn1cncn1)c1ccc(F)cc1F)S(C)(=O)=O` [GENACONAZOLE], the IC50 entry (in assay [1] (hek293); in assay [2]; on Substance-K receptor (cho); in assay [3]; in assay [4]; in assay [5]) was “Not Active” each time. For the same compound, the Ki entry in assay [3] and in assay [5] was “Not Active” in each case.
For `Cc1c(F)c(N2CCNC(C)C2)cc2c1c(=O)c(C(=O)O)cn2C1CC1` (configuration not stated) [GREPAFLOXACIN], the IC50 result (in assay [1] (hek293); in assay [2]; against Substance-K receptor (cho); in assay [3]; in assay [4]; in assay [5]) was “Not Active” in each case. Besides, the Ki result in assay [3] and in assay [5] was “Not Active” throughout.
On to `COc1ccccc1OCC(O)CO` (configuration not stated) [GUAIFENESIN], for which the IC50 entry (in assay [1] (hek293); in assay [2]; on Substance-K receptor (cho); in assay [3]; in assay [4]; in assay [5]) was “Not Active” each time. Besides, the Ki result in assay [3] and in assay [5] was “Not Active” each time.
As to `N=C(N)N/N=C/c1c(Cl)cccc1Cl` [GUANABENZ], the IC50 in assay [1] (read-out: IC50) was 0.472 µM; in assay [2] it was “Not Active”; on Substance-K receptor (cho), “Not Active”; in assay [3] it was “Not Active”; in assay [4] it was “Not Active”; in assay [5], “Not Active”. In addition, the Ki in assay [1] (read-out: Ki) was 0.232 µM; in assay [3] it was “Not Active”; in assay [5] it was “Not Active”.
Regarding `C[C@]12CCC(=O)C=C1CC[C@@H]1[C@@H]2[C@@H](O)C[C@@]2(C)[C@H]1CC[C@]2(O)C(=O)CO` [HYDROCORTISONE], the IC50 entry (in assay [1] (hek293); in assay [2]; against Substance-K receptor (cho); in assay [3]; in assay [4]; in assay [5]) was “Not Active” each time. In addition, the Ki entry in assay [3] and in assay [5] was “Not Active” throughout.
In the case of `C/C=C\c1ccc(O)c(OC)c1` [ISOEUGENOL], the half-inhibitory concentration (IC50) entry (in assay [1] (hek293); in assay [2]; at Substance-K receptor (cho); in assay [3]; in assay [4]; in assay [5]) was “Not Active” each time. Moreover, the Ki result in assay [3] and in assay [5] was “Not Active” throughout.
As for `NC[C@H]1O[C@H](O[C@H]2[C@H](O)[C@@H](O[C@H]3O[C@H](CO)[C@@H](O)[C@H](N)[C@H]3O)[C@H](N)C[C@@H]2N)[C@H](O)[C@@H](O)[C@@H]1O` [KANAMYCIN], the IC50 result (in assay [1] (hek293); in assay [2]; against Substance-K receptor (cho); in assay [3]; in assay [4]; in assay [5]) was “Not Active” in each case. The inhibition constant Ki entry in assay [3] and in assay [5] was “Not Active” in each case.
As for `CC[C@H](C)C(=O)O[C@H]1C[C@@H](C)C=C2C=C[C@H](C)[C@H](CC[C@@H]3C[C@@H](O)CC(=O)O3)[C@H]21` [LOVASTATIN], the IC50 entry was “Not Active” in assay [1] (hek293); “Not Active” in assay [2]; 28.2 µM at Substance-K receptor (read-out: IC50); “Not Active” in assay [3]; “Not Active” in assay [4]; “Not Active” in assay [5]. Moreover, the Ki at Substance-K receptor (read-out: Ki) is 9.41 µM; in assay [3], “Not Active”; in assay [5] it was “Not Active”.
Take `CC(C(=O)O)c1ccc(CC2CCCC2=O)cc1` (configuration not stated) [LOXOPROFEN]: the IC50 result (in assay [1] (hek293); in assay [2]; at Substance-K receptor (cho); in assay [3]; in assay [4]; in assay [5]) was “Not Active” throughout. In addition, the Ki result in assay [3] and in assay [5] was “Not Active” in each case.
Consider `Cc1cccc(Nc2ccccc2C(=O)O)c1C` [MEFENAMIC ACID], for which the IC50 result (in assay [1] (hek293); in assay [2]; on Substance-K receptor (cho); in assay [3]; in assay [4]; in assay [5]) was “Not Active” throughout. For the same compound, the Ki result in assay [3] and in assay [5] was “Not Active” each time.
Consider `CC(=O)O[C@]1(C(C)=O)CC[C@H]2[C@@H]3C=C(C)C4=CC(=O)CC[C@]4(C)[C@H]3CC[C@@]21C` [MEGESTROL ACETATE], for which the IC50 result (in assay [1] (hek293); in assay [2]; on Substance-K receptor (cho); in assay [3]; in assay [4]; in assay [5]) was “Not Active” each time. Besides, the Ki result in assay [3] and in assay [5] was “Not Active” in each case.
Take `COc1ccccc1OCC(O)COC(N)=O` (configuration not stated) [METHOCARBAMOL]: the IC50 entry (in assay [1] (hek293); in assay [2]; on Substance-K receptor (cho); in assay [3]; in assay [4]; in assay [5]) was “Not Active” in each case. Further, the Ki entry in assay [3] and in assay [5] was “Not Active” each time.
As for `CN(Cc1cnc2nc(N)nc(N)c2n1)c1ccc(C(=O)N[C@@H](CCC(=O)O)C(=O)O)cc1` [METHOTREXATE], the IC50 entry (in assay [1] (hek293); in assay [2]; at Substance-K receptor (cho); in assay [3]; in assay [4]; in assay [5]) was “Not Active” in each case. Further, the Ki entry in assay [3] and in assay [5] was “Not Active” each time.
For the compound `COC(=O)c1ccccc1O` [METHYL SALICYLATE], the IC50 result (in assay [1] (hek293); in assay [2]; on Substance-K receptor (cho); in assay [3]; in assay [4]; in assay [5]) was “Not Active” throughout. Besides, the Ki result in assay [3] and in assay [5] was “Not Active” throughout.
In the case of `COc1ccc2cc(CCC(C)=O)ccc2c1` [NABUMETONE], the IC50 entry (in assay [1] (hek293); in assay [2]; against Substance-K receptor (cho); in assay [3]; in assay [4]; in assay [5]) was “Not Active” in each case. Further, the inhibitory constant (Ki) entry in assay [3] and in assay [5] was “Not Active” each time.
On to `O=C(O)c1cccnc1` [NIACIN], for which the IC50 entry (in assay [1] (hek293); in assay [2]; against Substance-K receptor (cho); in assay [3]; in assay [4]; in assay [5]) was “Not Active” throughout. In addition, the Ki result in assay [3] and in assay [5] was “Not Active” throughout.
With `CNC(=C[N+](=O)[O-])NCCSCc1csc(CN(C)C)n1` [NIZATIDINE], the IC50 entry (in assay [1] (hek293); in assay [2]; on Substance-K receptor (cho); in assay [3]; in assay [4]; in assay [5]) was “Not Active” throughout. Also, the Ki result in assay [3] and in assay [5] was “Not Active” in each case.
On to `C[C@]12C/C(=C/O)C(=O)C[C@@H]1CC[C@@H]1[C@@H]2CC[C@@]2(C)[C@H]1CC[C@]2(C)O` [OXYMETHOLONE], for which the IC50 entry (in assay [1] (hek293); in assay [2]; on Substance-K receptor (cho); in assay [3]; in assay [4]; in assay [5]) was “Not Active” in each case. In addition, the inhibitory constant (Ki) result in assay [3] and in assay [5] was “Not Active” each time.

The term IC50 denotes the midpoint of a concentration-inhibition curve. For orientation: Ki means a measure of affinity in units of concentration, obtained from inhibition or displacement.
